Experimental data from patent publication US12178822B2, “Methods of treating hematological malignancies using 2-(2,6-dioxopiperidin-3-yl)-4-((2-fluoro-4-((3-morpholinoazetidin-1-yl)methyl)benzyl)amino)isoindoline-1,3-dion” (Celgene Corporation, priority 2019, dated 2024).

What was measured:
Type in all cases: cell-based
JJN-3 = experiment: Cell proliferation and viability / apoptosis flow cytometry assay, JJN-3; conditions: JJN-3 (MM, PCL); 120 hours
Experimental: (§1) The following are examples of cell-based assays that can be used to determine the anti-proliferative activity and apoptotic effect of compounds described herein using exemplary hematological cell lines (Table 1). The in vitro growth inhibitory activity of Compound 1 described herein was evaluated using a 384-well flow cytometry assay.
(§2) The cell lines were plated under the conditions shown in Table 1 in 384-well flat bottom plates and incubated with increasing concentrations of compound ranging from 0.00015 to 10 μM or dimethyl sulfoxide (DMSO) control. The final concentration of DMSO was 0.1% (v/v). Following the addition of Compound 1 or DMSO and incubation for 120 hours, cell number and cell death were analyzed by flow cytometry (Attune®, Thermo Fisher) using Annexin V and the live-cell impermeant DNA dye, DRAQ7. […]
(§3) Flow cytometry data analysis was then performed using the Flow Jo_v10 software to determine the number of viable cells (Annexin V and DRAQ7 double negative staining cells) and percentage of apoptotic cells (Annexin V positive cells) for each condition. […] The IC50 (50% inhibitory concentration) and Emax (maximum efficacy achieved) values were then calculated by performing nonlinear regression curve fitting using log(inhibitor) vs. normalized response—variable slope analysis on GraphPad Prism 7.03. […]

HNT-34 = experiment: Cell proliferation and viability / apoptosis flow cytometry assay, HNT-34; conditions: HNT-34 (AML); 120 hours
Experimental: as §1, §2, §3

HuT-102 = experiment: Cell proliferation and viability / apoptosis flow cytometry assay, HuT-102; conditions: HuT-102 (TCL); 120 hours
Experimental: as §1, §2, §3

L-363 = experiment: Cell proliferation and viability / apoptosis flow cytometry assay, L-363; conditions: L-363 (MM, PCL); 120 hours
Experimental: as §1, §2, §3

Karpas-299 = experiment: Cell proliferation and viability / apoptosis flow cytometry assay, Karpas-299; conditions: Karpas-299 (TCL); 120 hours
Experimental: as §1, §2, §3

L-428 = experiment: Cell proliferation and viability / apoptosis flow cytometry assay, L-428; conditions: L-428 (HL); 120 hours
Experimental: as §1, §2, §3

SK-MM-1 = experiment: Cell proliferation and viability / apoptosis flow cytometry assay, SK-MM-1; conditions: SK-MM-1 (MM, PCL); 120 hours
Experimental: as §1, §2, §3

L-591 = experiment: Cell proliferation and viability / apoptosis flow cytometry assay, L-591; conditions: L-591 (HL); 120 hours
Experimental: as §1, §2, §3

KOPN-8 = experiment: Cell proliferation and viability / apoptosis flow cytometry assay, KOPN-8; conditions: KOPN-8 (ALL); 120 hours
Experimental: as §1, §2, §3

SVSL/VL51 = experiment: Cell proliferation and viability / apoptosis flow cytometry assay, SVSL; conditions: SVSL (MZL, SMZL); 120 hours
Experimental: as §1, §2, §3

BL-41 = experiment: Cell proliferation and viability / apoptosis flow cytometry assay, BL-41; conditions: 120 hours
Experimental: as §1, §2, §3

OPM-2 = experiment: Cell proliferation and viability / apoptosis flow cytometry assay, OPM-2; conditions: OPM-2 (MM); 120 hours
Experimental: as §1, §2, §3

Karpas-231 = experiment: Cell proliferation and viability / apoptosis flow cytometry assay, Karpas-231; conditions: Karpas-231 (ALL); 120 hours
Experimental: as §1, §2, §3

NCI-H929 = experiment: Cell proliferation and viability / apoptosis flow cytometry assay, NCI-H929; conditions: NCI-H929 (MM); 120 hours
Experimental: as §1, §2, §3

MDS-L = experiment: Cell proliferation and viability / apoptosis flow cytometry assay, MDS-L; conditions: 120 hours
Experimental: as §1, §2, §3

Daudi = experiment: Cell proliferation and viability / apoptosis flow cytometry assay, Daudi; conditions: Daudi (BL); 120 hours
Experimental: as §1, §2, §3

O=C1CC[C@H](N2C(=O)c3cccc(NCc4ccc(CN5CC(N6CCOCC6)C5)cc4F)c3C2=O)C(=O)N1 [Compound 1, (S)-2-(2,6-dioxopiperidin-3-yl)-4-((2-fluoro-4-((3-morpholinoazetidin-1-yl)methyl)benzyl)amino)isoindoline-1,3-dione]
% Viable Cells Emax (percentage of tumor cells remaining) (JJN-3): 21.6%
% Viable Cells Emax (percentage of tumor cells remaining) (HNT-34): 20.47%
% Viable Cells Emax (percentage of tumor cells remaining) (HuT-102): 36.34%
% Viable Cells Emax (percentage of tumor cells remaining) (L-363): 27.6%
% Viable Cells Emax (percentage of tumor cells remaining) (Karpas-299): 8.43%
% Viable Cells Emax (percentage of tumor cells remaining) (L-428): 47.3%
% Viable Cells Emax (percentage of tumor cells remaining) (SK-MM-1): 3%
% Viable Cells Emax (percentage of tumor cells remaining) (L-591): 34.6%
% Viable Cells Emax (percentage of tumor cells remaining) (KOPN-8): 38.3%
% Viable Cells Emax (percentage of tumor cells remaining) (SVSL/VL51): 34.07%
% Viable Cells Emax (percentage of tumor cells remaining) (BL-41): 96.65%
% Viable Cells Emax (percentage of tumor cells remaining) (OPM-2): 6.65%
% Viable Cells Emax (percentage of tumor cells remaining) (Karpas-231): 0%
% Viable Cells Emax (percentage of tumor cells remaining) (NCI-H929): 6.1%
% Viable Cells Emax (percentage of tumor cells remaining) (MDS-L): 146.7%
% Viable Cells Emax (percentage of tumor cells remaining) (Daudi): 0%
